# Laboratory results reported in patent US6673769B2, “Lanthionine bridged peptides” (priority 1991, dated 2004).
# Read-outs that look alike come from different tables or passages of the source.
# Tests used:
# [1] = target: T1, MVD (δ-receptor) (Mus musculus, UniProt P32300); test: cell-based
# T1 construct: The vas is then mounted under 0.5 g tension in a 5 ml organ bath; from tissue; host or cells: mouse vas deferens (Swiss Webster)
# [2] = Enzymatic degradation of enkephalin analogs (half-life)
# [3] = target: SSTR4 receptor; test: Inhibition of radioligand binding to cloned somatostatin receptor SSTR4; conditions: for IC50: cloned receptor, radioligand binding, read-out: SSTR4 receptor binding constant IC50
# [4] = target: δ receptor (Homo sapiens, UniProt P41143); test: δ-Binding, replacement of 3H-naltrindole
# [5] = tested on: SSTR2 receptor; test: Inhibition of radioligand binding to cloned somatostatin receptor SSTR2; conditions: for IC50: cloned receptor, radioligand binding, read-out: SSTR2 receptor binding constant IC50
# [6] = inhibition of electrically evoked twitch of mouse vas deferens, read-out: MVD IC50
# T1 sequence (P32300 whole entry): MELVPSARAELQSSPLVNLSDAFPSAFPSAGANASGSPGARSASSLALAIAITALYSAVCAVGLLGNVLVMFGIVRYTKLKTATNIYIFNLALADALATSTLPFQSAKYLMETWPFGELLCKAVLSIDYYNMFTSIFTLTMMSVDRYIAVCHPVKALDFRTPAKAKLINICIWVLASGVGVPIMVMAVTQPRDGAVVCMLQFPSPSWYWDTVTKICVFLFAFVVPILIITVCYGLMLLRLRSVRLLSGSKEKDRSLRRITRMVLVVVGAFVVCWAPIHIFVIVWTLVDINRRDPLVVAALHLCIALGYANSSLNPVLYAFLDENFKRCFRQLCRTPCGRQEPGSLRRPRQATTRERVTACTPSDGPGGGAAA
# Chain of δ receptor (P41143 whole entry): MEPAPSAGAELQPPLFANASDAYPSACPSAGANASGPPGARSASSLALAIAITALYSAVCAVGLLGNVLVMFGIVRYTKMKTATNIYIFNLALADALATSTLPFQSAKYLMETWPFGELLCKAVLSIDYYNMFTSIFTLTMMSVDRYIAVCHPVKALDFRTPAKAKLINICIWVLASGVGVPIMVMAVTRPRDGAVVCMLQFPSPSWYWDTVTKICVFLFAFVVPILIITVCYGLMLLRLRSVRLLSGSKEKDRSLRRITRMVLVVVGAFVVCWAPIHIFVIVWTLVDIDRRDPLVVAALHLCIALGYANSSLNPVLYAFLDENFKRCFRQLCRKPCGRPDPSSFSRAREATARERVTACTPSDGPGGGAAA
compound,measurement,setting,value
NC(=O)[C@H]1CSC[C@@H](NC(=O)[C@@H](N)Cc2ccc(O)cc2)C(=O)NCC(=O)N[C@@H](Cc2ccccc2)C(=O)N1 [Tyr-c[D-AlaL-Gly-Phe-D-AlaL]-NH2],IC50,[1]; [6],1.67 nM
NC(=O)[C@@H]1CSC[C@@H](NC(=O)[C@@H](N)Cc2ccc(O)cc2)C(=O)NCC(=O)N[C@@H](Cc2ccccc2)C(=O)N1 [Lanthionine-enkephalin],half-life,[2],20.4 h
H-D-Phe-c[AlaLPhe-D-Trp-Lys-Thr-AlaL]-OH,IC50,[3],500 nM
NC(=O)[C@@H]1CSC[C@@H](NC(=O)[C@@H](N)Cc2ccc(O)cc2)C(=O)NCC(=O)N[C@@H](Cc2ccccc2)C(=O)N1 [Tyr-c[D-AlaL-Gly-Phe-L-AlaL]-NH2],IC50,[4],7 nM
same,IC50,[1]; [6],0.54 nM
"c[AlaL3, AlaL14]-Somatostatin-14","affinity/potency on SSTR2, in words",[5],same binding affinity
same,IC50,[5],0.3 nM
"NC(=O)[C@@H]1CSSC[C@@H](NC(=O)[C@@H](N)Cc2ccc(O)cc2)C(=O)NCC(=O)N[C@@H](Cc2ccccc2)C(=O)N1 [Disulfide-enkephalin, reference compound]",half-life,[2],5.53 h
"C[C@H](N)C(=O)NCC(=O)N[C@H]1CSSC[C@@H](C(=O)O)NC(=O)[C@H](CO)NC(=O)[C@H]([C@@H](C)O)NC(=O)[C@H](Cc2ccccc2)NC(=O)[C@H]([C@@H](C)O)NC(=O)[C@H](CCCCN)NC(=O)[C@H](Cc2c[nH]c3ccccc23)NC(=O)[C@H](Cc2ccccc2)NC(=O)[C@H](Cc2ccccc2)NC(=O)[C@H](CC(N)=O)NC(=O)[C@H](CCCCN)NC1=O [Somatostatin-14, reference compound]",IC50,[3],0.86 nM
same,IC50,[5],0.28 nM
H-D-Phe-c[AlaLPhe-D-Trp-Lys-Thr-AlaL]-Thr-ol,IC50,[3],1 nM
same,IC50,[5],5 nM
N[C@@H](Cc1ccc(O)cc1)C(=O)N[C@@H]1CSC[C@@H](C(=O)O)NC(=O)[C@H](Cc2ccccc2)NC(=O)CNC1=O [Tyr-c[D-AlaL-Gly-Phe-L-AlaL]-OH],IC50,[4],1 nM
same,IC50,[1],0.16 nM
H-D-Phe-c[AlaLPhe-D-Trp-Lys-Thr-AlaL]-Thr-NH2,selectivity for SSTR4 (SSTR2/SSTR4 IC50) compared with the octapeptide alcohols,[3],four times
same,IC50,[3],0.5 nM
same,IC50,[5],10 nM
Sandostatin [reference compound],IC50,[3],0.57 nM
same,IC50,[5],2.4 nM
